Test system: T1, 20S proteasome
T1 construct: gene PSMB5; endogenous proteasome of COS-7 cells expressing OAT3; with Proteasome subunit beta type-6; Proteasome subunit beta type-7; Proteasome subunit beta type-1; Proteasome subunit beta type-2; Proteasome subunit beta type-3; Proteasome subunit beta type-4; Proteasome subunit alpha type-1; Proteasome subunit alpha type-2; Proteasome subunit alpha type-3; Proteasome subunit alpha type-4; Proteasome subunit alpha type-5; Proteasome subunit alpha type-6; Proteasome subunit alpha type-7
Test: […] proteasome assay kit (fluorescence) after treatment of intact cells
Assay type: cell-based
Settings: OAT3-expressing COS-7 cells treated 4 h; range over 10-100 µM; direct binding not shown

CCN(CCO)CCCC(C)Nc1ccnc2cc(Cl)ccc12 (stereo not shown) [Hydroxychloroquine]
% inhibition at 10-100 μM: 23–61%
